Test results as given in ChEMBL document CHEMBL1145508, “Role of homoserine transacetylase as a new target for antifungal agents” (Antimicrob Agents Chemother, 2007).

Tests used:
[1] = Inhibition of Schizosaccharomyces pombe HTA in presence of 100 uM acetyl-CoA substrate
[2] = Inhibition of Schizosaccharomyces pombe HTA in presence of 10 uM acetyl-CoA substrate
[3] = Inhibition of Cryptococcus neoformans H99 HTA expressed in Escherichia coli BL21(DE3) cells

## NC(=O)c1cccc2c1NC(C(=O)O)C1CC=CC21 (centres undefined)
[1]
  IC50: 287 µM
[2]
  IC50: 156 µM
[3]
  IC50: 4.5 µM
  Ki: 91.7 µM
